According to patent publication US20170369492A1 (Takeda Pharmaceutical Company Limited, priority 2014, published 2017):

Molecular target: T1, human GPR43 (Homo sapiens, UniProt O15552)
T1 construct: expressed in transfected cells
T1 sequence (O15552 1-330): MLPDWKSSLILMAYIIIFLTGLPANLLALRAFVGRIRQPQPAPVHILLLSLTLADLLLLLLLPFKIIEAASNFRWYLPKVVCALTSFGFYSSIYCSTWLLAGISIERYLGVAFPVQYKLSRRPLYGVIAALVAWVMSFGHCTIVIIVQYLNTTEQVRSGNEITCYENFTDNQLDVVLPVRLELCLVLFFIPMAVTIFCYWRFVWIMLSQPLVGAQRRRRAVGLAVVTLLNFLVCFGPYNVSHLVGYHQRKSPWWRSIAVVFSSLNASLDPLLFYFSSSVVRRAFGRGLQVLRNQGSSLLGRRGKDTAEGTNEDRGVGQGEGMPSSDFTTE
Test: Ca-Flux Functional Assay: Determination of Agonist/Positive Allosteric Modulator (PAM) Activity
Format: cell-based
Settings: CHO-K1 Gα16 cells stably expressing human GPR43; compound added in the presence of EC20 sodium acetate; intracellular Ca2+ by FLIPR; agonist/PAM activity not distinguished
Procedure: Ca-Flux Functional Assay: Determination of Agonist/Positive Allosteric Modulator (PAM) Activity
GPR43 agonist/PAM activity was determined by measuring changes in intracellular calcium levels using a Ca^2+ sensitive fluorescent dye. The changes in fluorescent signal were monitored by FLIPR (manufactured by Molecular Devices). GPR43 mediated increases in intracellular Ca^2+ concentration were readily detected upon activation with sodium acetate. Prior to the assay (24 hours), CHO-K1 Gα16 cells stably expressing human GPR43 were-seeded in cell culture medium in black, clear-bottom 384-well plates (Corning Inc) and grown overnight at 37° C., 5% CO2. On the day of the assay, cell culture media was removed and cells were loaded with Calcium 5 Dye (Molecular Devices) diluted in HBSS containing 25 mM HEPES, 2.5 mM Probenecid, 0.1% BSA for 1 hour at 37° C., 5% CO2. 10 point half log concentration response curves of sodium acetate from 10 mM were conducted prior to the testing of compounds to calculate the sodium acetate concentration that produces 20% of the maximal response (EC20). Test compounds (at to point half log concentration response curves from 10 μM) were added in the presence of sodium acetate to achieve a final concentration that produces approximately 20% maximal response as calculated from the previous experiment. The changes in fluorescent signal were monitored by FLIPR upon addition of the compound/EC20 sodium acetate mix. The EC50 values were determined from ten point concentration response curves. Curves were generated using the average of two wells for each data point.
The above assay detects both GPR43 receptor agonists and positive allosteric modulators of the GPR43 receptor, without distinguishing between the two. Activity in either regard is useful in the treatment of conditions associated with GPR43 receptor activity.

Structure (SMILES) | EC50
Nc1c(S(=O)(=O)c2ccccc2)c2nccnc2n1CCC1CC1 [Example 48, 5-(2-cyclopropylethyl)-7-(phenylsulfonyl)-5H-pyrrolo[2,3-b]pyrazin-6-amine] | 3260 nM
CC1(C)CCN(S(=O)(=O)c2c(N)n(C3CCCCC3)c3nccnc23)CC1 [Example 66, 5-cyclohexyl-7-((4,4-dimethylpiperidin-1-yl)sulfonyl)-5H-pyrrolo[2,3-b]pyrazin-6-amine] | 327 nM
Nc1c(S(=O)(=O)N2Cc3ccccc3C2)c2nccnc2n1C1CCCCC1 [Example 97, 5-cyclohexyl-7-(2,3-dihydro-1H-isoindole-2-sulfonyl)-5H-pyrrolo[2,3-b]pyrazin-6-amine] | 173 nM
Cc1ccc(S(=O)(=O)c2c(N)n(C3CCCCC3)c3ncccc23)cc1 [Example 11, 1-cyclohexyl-3-[(4-methylbenzene)sulfonyl]-1H-pyrrolo[2,3-b]pyridin-2-amine] | 753 nM
Nc1c(S(=O)(=O)NCCC(F)(F)F)c2nccnc2n1C1CCCCC1 [Example 82, 6-amino-5-cyclohexyl-N-(3,3,3-trifluoropropyl)-5H-pyrrolo[2,3-b]pyrazine-7-sulfonamide] | 821 nM
Nc1c(S(=O)(=O)NCCc2ccccc2)c2nccnc2n1C1CCCCC1 [Example 84, 6-amino-5-cyclohexyl-N-(2-phenylethyl)-5H-pyrrolo[2,3-b]pyrazine-7-sulfonamide] | 3290 nM
Nc1c(S(=O)(=O)c2ccccc2)c2ncnc(Cl)c2n1C1CCC(F)(F)CC1 [Example 32, 7-(benzenesulfonyl)-4-chloro-5-(4,4-difluorocyclohexyl)-5H-pyrrolo[3,2-d]pyrimidin-6-amine] | 689 nM
Nc1c(S(=O)(=O)N2CCC(F)(F)CC2)c2nccnc2n1C1CCCCC1 [Example 69, 5-cyclohexyl-7-((4,4-difluoropiperidin-1-yl)sulfonyl)-5H-pyrrolo[2,3-b]pyrazin-6-amine] | 547 nM
Nc1c(S(=O)(=O)N2CC(N3CCCCC3)C2)c2nccnc2n1C1CCCCC1 [Example 100, 5-cyclohexyl-7-[3-(piperidin-1-yl)azetidine-1-sulfonyl]-5H-pyrrolo[2,3-b]pyrazin-6-amine] | 3930 nM
Nc1c(S(=O)(=O)c2ccccc2)c2cccnc2n1C1CCC(F)(F)CC1 [Example 17, 3-(benzenesulfonyl)-1-(4,4-difluorocyclohexyl)-1H-pyrrolo[2,3-b]pyridin-2-amine] | 559 nM
Nc1c(S(=O)(=O)NCC2COC2)c2nccnc2n1C1CCCCC1 [Example 80, 6-amino-5-cyclohexyl-N-(oxetan-3-ylmethyl)-5H-pyrrolo[2,3-b]pyrazine-7-sulfonamide] | 6070 nM
Nc1c(S(=O)(=O)c2ccccc2)c2cncnc2n1C1CCCCC1 [Example 16] | 337 nM
Nc1c(S(=O)(=O)C2CCCCC2)c2nccnc2n1C1CCCCC1 [Example 12, 7-(cyclohexanesulfonyl)-5-cyclohexyl-5-pyrrolo[2,3-b]pyrazin-6-amine] | 671 nM
CC1(C)CCCN(S(=O)(=O)c2c(N)n(C3CCCCC3)c3nccnc23)C1 [Example 92, 5-cyclohexyl-7-(3,3-dimethylpiperidine-1-sulfonyl)-5H-pyrrolo[2,3-b]pyrazin-6-amine] | 440 nM
Nc1c(S(=O)(=O)c2ccccc2)c2cc(Cl)nnc2n1C1CCCCC1 [Example 27, 5-(benzenesulfonyl)-3-chloro-7-cyclohexyl-7H-pyrrolo[2,3-c]pyridazin-6-amine] | 277 nM
Nc1c(S(=O)(=O)c2ccccc2)c2ncccc2n1C1CCC(F)(F)CC1 [Example 21, 3-(benzenesulfonyl)-1-(4,4-difluorocyclohexyl)-1H-pyrrolo[3,2-b]pyridin-2-amine] | 282 nM
Nc1c(S(=O)(=O)N2CCC(OCC3CC3)CC2)c2nccnc2n1C1CCCCC1 [Example 107, 5-cyclohexyl-7-[4-(cyclopropylmethoxy)piperidine-1-sulfonyl]-5H-pyrrolo[2,3-b]pyrazin-6-amine] | 320 nM
COC(=O)Nc1c(S(=O)(=O)c2ccccc2)c2nccnc2n1C1CCCCC1 [Example 24, methyl N-[7-(benzenesulfonyl)-5-cyclohexyl-5H-pyrrolo[2,3-b]pyrazin-6-yl]carbamate] | 2590 nM

Structure (SMILES) | EC50
CCCNS(=O)(=O)c1c(N)n(C2CCCCC2)c2nccnc12 [Example 59, 6-amino-5-cyclohexyl-N-propyl-5H-pyrrolo[2,3-b]pyrazine-7-sulfonamide] | 792 nM
COC1CCN(S(=O)(=O)c2c(N)n(C3CCCCC3)c3nccnc23)C1 (stereo not drawn) [Example 91, 5-cyclohexyl-7-(3-methoxypyrrolidine-1-sulfonyl)-5H-pyrrolo[2,3-b]pyrazin-6-amine] | 8350 nM
Nc1c(S(=O)(=O)c2ccccc2)c2nccnc2n1CC1CCCC1 [Example 54, 5-(cyclopentylmethyl)-7-(phenylsulfonyl)-5H-pyrrolo[2,3-b]pyrazin-6-amine] | 1540 nM
CC1CCN(S(=O)(=O)c2c(N)n(C3CCCCC3)c3nccnc23)C1 (stereo not drawn) [Example 67, 5-cyclohexyl-7-((3-methylpyrrolidin-1-yl)sulfonyl)-5H-pyrrolo[2,3-b]pyrazin-6-amine] | 830 nM
COC1CN(S(=O)(=O)c2c(N)n(C3CCCCC3)c3nccnc23)C1 [Example 64, 5-cyclohexyl-7-((3-methoxyazetidin-1-yl)sulfonyl)-5H-pyrrolo[2,3-b]pyrazin-6-amine] | 7130 nM
Nc1c(S(=O)(=O)N2CCOCC2)c2nccnc2n1C1CCCCC1 [Example 61, 5-cyclohexyl-7-(morpholinosulfonyl)-5H-pyrrolo[2,3-b]pyrazin-6-amine] | 4320 nM
Nc1c(S(=O)(=O)c2ccc(OC(F)F)cc2)c2nccnc2n1C1CCCCC1 [Example 118, 5-cyclohexyl-7-{[4-(difluoromethoxy)-benzene]sulfonyl}-5H-pyrrolo[2,3-b]pyrazin-6-amine] | 177 nM
Nc1c(S(=O)(=O)c2ccccc2)c2ccnnc2n1C1CCCCC1 [Example 28, 5-(benzenesulfonyl)-7-cyclohexyl-7H-pyrrolo[2,3-c]pyridazin-6-amine] | 707 nM
Nc1c(S(=O)(=O)c2ccccc2)c2ncncc2n1C1CCCCC1 [Example 19, 7-(benzenesulfonyl)-5-cyclohexyl-5H-pyrrolo[3,2-d]pyrimidin-6-amine] | 1780 nM
Nc1c(S(=O)(=O)Nc2cccnc2)c2nccnc2n1C1CCCCC1 [Example 42, 6-amino-5-cyclohexyl-N-(pyridin-3-yl)-5H-pyrrolo[2,3-b]pyrazine-7-sulfonamide] | 2300 nM
Nc1c(S(=O)(=O)N2CCC(Oc3ccccc3)CC2)c2nccnc2n1C1CCCCC1 [Example 85, 5-cyclohexyl-7-(4-phenoxypiperidine-1-sulfonyl)-5H-pyrrolo[2,3-b]pyrazin-6-amine] | 1060 nM
Nc1c(S(=O)(=O)C2CC2)c2nccnc2n1C1CCCCC1 [Example 109, 5-cyclohexyl-7-(cyclopropanesulfonyl)-5H-pyrrolo[2,3-b]pyrazin-6-amine] | 2900 nM
COc1ccc(S(=O)(=O)c2c(N)n(C3CCC(F)(F)CC3)c3ncccc23)cc1 [Example 14, 1-(4,4-difluorocyclohexyl)-3-[(4-methoxybenzene)sulfonyl]-1H-pyrrolo[2,3-b]pyridin-2-amine] | 138 nM
Nc1c(S(=O)(=O)c2ccc(F)cc2)c2nccnc2n1C1CCCCC1 [Example 6, 5-cyclohexyl-7-[(4-fluorobenzene)sulfonyl]-5H-pyrrolo[2,3-b]pyrazin-6-amine] | 301 nM
COc1ccc(S(=O)(=O)c2c(N)n(C3CCC(F)(F)CC3)c3nccnc23)cc1 [Example 13, 5-(4,4-difluorocyclohexyl)-7-[(4-methoxybenzene)sulfonyl]-5H-pyrrolo[2,3-b]pyrazin-6-amine] | 129 nM
Nc1c(S(=O)(=O)N2CCN(C(=O)c3ccc(F)cc3)CC2)c2nccnc2n1C1CCCCC1 [Example 98, 5-cyclohexyl-7-{4-[(4-fluorophenyl)carbonyl]piperazine-1-sulfonyl}-5H-pyrrolo[2,3-b]pyrazin-6-amine] | 2810 nM
COc1ncnc2c(S(=O)(=O)c3ccccc3)c(N)n(C3CCOCC3)c12 [Example 40, 7-(benzenesulfonyl)-4-methoxy-5-(oxan-4-yl)-5H-pyrrolo[3,2-d]pyrimidin-6-amine] | 7380 nM
Nc1c(S(=O)(=O)N2CCC(c3ccccc3)CC2)c2nccnc2n1C1CCCCC1 [Example 83, 5-cyclohexyl-7-(4-phenylpiperidine-1-sulfonyl)-5H-pyrrolo[2,3-b]pyrazin-6-amine] | 931 nM
